Results on five compounds are retold here after US20030229027A1, “Stabilized natural cannabinoid formulation” (priority 2002, published 2003).

For data set [1] the following is noted: cited from earlier work; for Tg / Tg′: comparison with inulin; for Glass transition temperature: at dry conditions.
A short description of data set [2]: Dynamic vapour sorption (gravimetric sorption analyser). In kind it is physicochemical. As to conditions: after exposure to 90% RH. The procedure: Water sorption isotherm of freeze dried inulin was measured at ambient pressures and 25° C. using a gravimetric sorption analyser (DVS-1000 Water Sorption Instrument, Surface Measurement Systems Limited, London, UK). The uptake of water by inulin was measured from 0% to 90% RH with steps of 10% RH. The initial sample weight was about 10 mg. It was assumed that equilibrium was reached when the change of weight was less than 0.9 μg during a ten minutes period.
The water sorption of THC was determined according to the procedure described above for inulin. The THC was dissolved in methanol before it was put in the DVS-1000 instrument. During initial exposure to a dry nitrogen flow, the methanol was evaporated. As soon as about 90% of the solvent was evaporated, additional THC solution was added to the sample-cup. This procedure was repeated until 15 mg of pure THC was present in the sample cup. After the evaporation of the last methanol, the relative humidity was increased from 0% to 90% in steps of 10%.

Data set [3] is described as follows: Modulated DSC, thermal behavior of THC. The format is physicochemical. As to conditions: mDSC thermogram of THC. The procedure: The thermal behavior of THC was determined by mDSC. A modulation amplitude of ±0.318° C. every 60 sec and a heating rate of 2° C./min was used. During measurement, the sample cell was purged with nitrogen at a flow rate of 35 mL/min. A blob of pure THC was put in the sample cup. After initial cooling the sample was first scanned till 50° C. In this way the blob was able to spread over the entire bottom of the sample pan, thereby increasing the surface available for heat transfer during the second scan. The sample was then cooled until −40° C. and heated to 350° C.

Data set [4] is described as follows: Stability (no clouding) of water-alcohol solutions of inulin and THC. The following applies: 0.4% w/v THC. The format is physicochemical. The procedure: The suitable volume ratio of water/alcohol was investigated by testing the stability of 10% w/v inulin solutions with different ratio's water/alcohol. Inulin was dissolved in different amounts of water (3 to 7 mL). Subsequently different amounts of alcohol were added until a total volume of 10 mL. For THC the same procedure was followed, but now water was added to the alcoholic THC solution. The solution was judged as sufficiently stable if no clouding appeared within the time of processing. For spray drying batches were made which required up to half an hour of spraying. Therefore the solution should be clear for at least that period of time. For freeze drying the solution should be clear until it is frozen. In this case ten minutes is sufficient. Furthermore, it was investigated whether the aqueous inulin solution could be added slowly or should be mixed instantaneously.
The three relevant alcohol's were added to a solution of inulin in water. It was determined for how long the obtained solution stayed clear. After 1 g of inulin was dissolved in 4 mL water, water and/or alcohol was added to a total volume of 10 mL, yielding a 10% w/v solution. The largest concentration of alcohol was thus obtained. THC was dissolved in the alcohol of interest. Subsequently, alcohol and/or water was added to give 0.4% w/v solutions.

The nature of data set [5]: THC-analysis control experiments (degradation of THC in methanol). In kind it is physicochemical.
Data set [6] in a line: Solubility of THC in water. The following applies: 20 °C, thermodynamic from solid, stirred 3 days.

Structures are written as SMILES. Where two headings read alike, the source gives them in different places.

`OC[C@H]1O[C@H](O[C@H]2O[C@H](CO)[C@@H](O)[C@H](O)[C@H]2O)[C@H](O)[C@@H](O)[C@@H]1O` [trehalose]: in data set [1], the Tg was 120 °C and the “Tg′” value is −36 °C.

Regarding `OC[C@H]1O[C@@](CO)(O[C@H]2O[C@H](CO)[C@@H](O)[C@H](O)[C@H]2O)[C@@H](O)[C@@H]1O` [sucrose], in data set [1], the Tg was 76 °C and the “Tg′” value is −39 °C.

Regarding `OC[C@@H](O)[C@@H](O[C@@H]1O[C@H](CO)[C@H](O)[C@H](O)[C@H]1O)[C@H](O)[C@@H](O)CO` [lactitol], the Glass transition temperature in data set [1] is 33 °C.

Turning to `OC[C@@H](O)[C@@H](O[C@H]1O[C@H](CO)[C@@H](O)[C@H](O)[C@H]1O)[C@H](O)[C@@H](O)CO` [Maltitol, maltitol], the Glass transition temperature in data set [1] was 44 °C.

A word on the solubility: it is the concentration that dissolves in the medium under given conditions. A high value points to a readily soluble substance. Take `CCCCCc1cc(O)c2c(c1)OC(C)(C)[C@@H]1CCC(C)=C[C@@H]21` [THC, Δ^9-tetrahydrocannabinol]: the Water absorbed in data set [2] is on record as 0.3%. Further, the “Onset of endothermic peak (evaporation)” value in data set [3] stood at 200 °C. Further, the Tg in data set [3] was determined as 10 °C. Also, the “% v/v water for a stable solution” value in data set [4] (EtOH (ethanol)) is listed as at most 53% maximum % v/v; in data set [4] (TBA (t-butanol)), at most 63% maximum % v/v; in data set [4] (n-PrOH (n-propanol)) it was at most 62% maximum % v/v. Besides, the “Degradation of THC calibration solutions” value in data set [5] (solutions in methanol, 2 weeks at 4° C.) is listed as “no significant degradation”. The “Degradation of THC by ultrasonic treatment” value in data set [5] (ten minutes ultrasonic treatment in methanol) is “no degradation”. Moreover, in data set [5] (two days of extraction in methanol), the “Degradation of THC during extraction” value was “no significant degradation”. The compound also displayed a solubility at 3 days in data set [6] below 1 µg/mL.
